Where a name gives a salt, the structure may show the parent alone.
Assays:
D2 receptor = assay: Binding: displacement of [^3 H] YM-09151-2 (D2 site); details: Ligand [^3 H] YM09151-2
Excerpt: (§1) This process for studying specific binding is described Naunyn-Schmiedeberg's Arch. Pharmacol. 329, 333-338, 1985 and Mol. Pharmacol. 21, 301-314, 1982.

5-HT2 receptor = 5-HT2 receptor (Rattus norvegicus, UniProt P14842); assay: Binding: displacement of [^3 H] Ketanserine (5-HT2 site); details: compared with the reference substances
Excerpt: as §1

Chain of 5-HT2 receptor (P14842 whole entry): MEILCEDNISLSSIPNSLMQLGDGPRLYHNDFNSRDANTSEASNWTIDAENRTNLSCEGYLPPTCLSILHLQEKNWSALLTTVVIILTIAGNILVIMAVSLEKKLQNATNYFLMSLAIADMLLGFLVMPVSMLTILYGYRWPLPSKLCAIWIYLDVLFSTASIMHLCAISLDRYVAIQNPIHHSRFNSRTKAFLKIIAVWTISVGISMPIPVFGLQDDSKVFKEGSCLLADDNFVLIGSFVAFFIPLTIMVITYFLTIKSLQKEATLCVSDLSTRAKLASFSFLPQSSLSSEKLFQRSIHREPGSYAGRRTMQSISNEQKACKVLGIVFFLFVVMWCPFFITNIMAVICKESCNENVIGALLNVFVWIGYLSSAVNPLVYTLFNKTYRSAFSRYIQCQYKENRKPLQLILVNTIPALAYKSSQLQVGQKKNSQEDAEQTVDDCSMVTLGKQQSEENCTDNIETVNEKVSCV

Structure (SMILES) | Ki (D2 receptor) | affinity for the 5-HT2 receptor (in words) (5-HT2 receptor)
COc1c(C(=O)N[C@@H]2C[C@H]3CC[C@@H](C2)N3Cc2ccccc2)ccc2ccccc12 [Example 3, 1-Methoxy-N-[8-(phenylmethyl)-8-azabicyclo[3.2.1]oct-3-β-yl]-2-naphthalenecarboxamide] | 143 pM | 
COc1c(C(=O)N[C@@H]2C[C@H]3CC[C@@H](C2)N3Cc2ccccc2)cc(Br)c2ccccc12 [Example 4, 4-Bromo-1-methoxy-N-[8-(phenylmethyl)-8-azabicyclo[3.2.1]oct-3-β-yl]-2-naphthalenecarboxamide oxalate] | 776 pM | 
COc1c(C(=O)N[C@@H]2C[C@H]3CC[C@@H](C2)N3Cc2ccccc2)cc(Cl)c2ccccc12 [Example 5, 4-Chloro-1-methoxy-N-[8-(phenylmethyl)-8-azabicyclo[3.2.1]oct-3-β-yl)-2-naphthalenecarboxamide hydrochloride] | 408 pM | 
CCOc1c(C(=O)N[C@@H]2C[C@H]3CC[C@@H](C2)N3Cc2ccccc2)cc(Br)c2ccccc12 [Example 13, 4-Bromo-1-ethoxy-N-[8-(phenylmethyl)-8-azabicyclo[3.2.1]oct-3-β-yl]-2-naphthalenecarboxamide hydrochloride] | 944 pM | 
COc1c(C(=O)NC2CCN(Cc3ccccc3)CC2)ccc2ccccc12 [Patent EP 539,281 compound] | 3320 pM | little or no 5-HT2 affinity
CCN1CCCC1CNC(=O)c1cc(S(N)(=O)=O)ccc1OC (stereo not drawn) [Sulpiride] | 4630 pM | 
COc1cccc(C(=O)N[C@@H]2C[C@H]3CC[C@@H](C2)N3Cc2ccccc2)c1OC [Tropapride] | 106 pM | little or no 5-HT2 affinity

From patent publication US5958945A, “Naphthamide derivatives of 3-beta-amino azabicyclo octane or nonane as neuroleptic agents” (Pierre Fabre Medicament, priority 1995, dated 1999)
